Reference: patent publication US10695341B2, “Compositions and methods for treating endometriosis” (UNIVERSITY OF SOUTH FLORIDA, priority 2014, dated 2020)

Tests used:
LC3B-II [1] = experiment: Western blot of LC3B in other organs of treated mice; type: in vivo, mouse; conditions: 5 HCQ-treated vs 5 PBS-treated mice
Description: Tissues used for protein analyses included uterine horns, ectopic lesions, ovaries, thymus, kidneys, heart, pancreas, spleen, and liver. Samples were flash frozen in liquid nitrogen and stored at -80° C. until use. Tissues were homogenized in ice-cold lysis buffer containing 1% Triton X-100, 50 mM HEPES, 150 mM NaCl, 1 mM MgCl2, 1 mM EGTA, 10% glycerol, and protease inhibitor cocktail (Roche, Indianapolis, Ind.) using a PowerGen 125 homogenizer (Fisher Scientific, Pittsburgh, Pa.). Samples were centrifuged at 14,000 rpm for 10 min at 4° C. The supernatants were collected and total protein concentration was determined using the BCA assay (ThermoScientific, Rockford, Ill.), and a Bio Tek synergy 2 microplate reader (Winooski, Vt.). Samples were normalized and then run onto 10 or 12% SDS-polyacrylamide gels prepared in a Criterion® Cassette system (Bio-Rad, Hercules, Calif.) as previously described. The following antibodies and dilutions were used: LC3B rabbit polyclonal (#2775, 1:1,000), LC3A rabbit monoclonal (#4599 ([…]), 1:1,000), Beclin-1 rabbit polyclonal (#3738, 1:1,000), GABARAPL1 rabbit monoclonal (#13733 (E1J4E), 1:1,000), AMPKα rabbit monoclonal (#2603 (23A3), 1:500), FOXO1 rabbit monoclonal (#2880 (C29H4), 1:1,000), and Pan-Actin rabbit polyclonal (#4968, 1:500) were all obtained from Cell Signaling Technology (Danvers, Mass.). […]

[2] = system: G-CSF, eotaxin, and IP-10; experiment: Peritoneal fluid cytokine/chemokine magnetic bead panel; type: in vivo, mouse
Description: After animals were euthanized, 1 ml of sterile PBS was injected into the peritoneal cavity, the abdominal area was gently massaged, and the fluid collected. The collected fluid was centrifuged at 1,390 rpm for 5 min at 4° C. and the resulting supernatant was then stored at −80° C. Levels of chemokines and cytokines were analyzed using a MCYTOMAG-70K-PX32 (Millipore, Billerica, Mass.) following manufacturer's instructions. Briefly, 200 μl of wash buffer was added to each well and incubated for 10 min at room temperature in a plate shaker. After incubation, the wash buffer was decanted and the plate was inverted and tapped on absorbent towel several times. Then, 25 μl of assay buffer was added to each well followed by 25 μl of concentration standards, assay controls, or samples. The premixed bottle was vortexed and 25 μl of the beads were added to each well. The plate was incubated overnight at 4° C., protected from light. Then the plate was incubated for 1 min on the hand-held magnet and the well content was gently decanted and tapped on absorbent pads. Each well was washed twice using 200 μl of wash buffer, followed by the incubation on the hand-held magnet. Antibody detection solution was allowed to warm to room temperature, and then 25 μl was added to each well and incubated for 1 h at room temperature on a plate shaker, protected from light. Next, 25 μl of Streptavidin-Phycoerythrin was added to each well containing the detection antibodies and incubated for 30 min at room temperature protected from light on a plate shaker. After the incubation, the plate was washed twice as previously described and 150 μl of Sheath Fluid was added to each well. The plate was analyzed using MAGPIX™ instrument and xPONENT software solutions, version 4.2.

ATG5 and ATG3 mRNA = experiment: Real-time PCR of autophagic mediators in lesions; type: in vivo, C57BL/6 mice; conditions: lesions of HCQ-treated vs PBS-treated mice
Description: Total RNA was isolated using the RNeasy kit following the manufacturer's instructions (QIAGEN, Valencia, Calif.). RNA concentration and purity was determined using a 1000 NanoDrop (Thermo Scientific, Pittsburgh, Pa.). Lesion mass varied by samples, and this was reflected in the RNA amounts obtained (range of mass: 0.9 mg to 25 mg). Three RNA samples from uterine horns, having a 260/280 ratio higher than 1.8 and a 260/230 ratio higher than 1.7, were selected from recipient, donor, HCQ-treated, and PBS-treated animals (12 samples in total) for RT2-PCR analyses. Synthesis of cDNA was performed using 0.5 μg of total RNA, after DNA elimination step using the RT2 First Strand kit per manufacturer instructions (QIAGEN, Valencia, Calif.). After DNA elimination, the reaction mix was incubated at 42° C. for 15 min, followed by 95° C. for 5 min using a DNA Engine® Peltier Thermal cycler (Bio-Rad, Hercules, Calif.). A total of 102 μl of the cDNA reaction mix was added to the master mix containing 1,248 μl of RNAse-free water and 1,350 μl of 2× RT2 SYBR green master mix. Twenty-five μl of the master mix were carefully added to each well of the RT2 profiler PCR autophagy array. Quantification was performed using the Applied Biosystems cycler (Life Technologies, Grand Island, N.Y.). […] The PCR cycling program finalized with a melt curve analysis and data was analyzed using the QIAGEN web-based software.

LC3B-II [3] = experiment: Western blot for LC3B, life-extended human endometriotic cells, HCQ; type: cell-based; conditions: 25 μM HCQ, 18 hours
[4] = HCQ-treated vs PBS-treated mice

CCN(CCO)CCCC(C)Nc1ccnc2cc(Cl)ccc12 (centres unmarked) [HCQ, hydroxychloroquine]
LC3B-II expression in heart (LC3B-II [1]): showed differences | LC3B-II expression in lung (LC3B-II [1]): showed differences | IP-10 in peritoneal fluid ([2]; HCQ-treated (n=5) vs PBS-treated mice, p=0.0079): significantly increased | G-CSF in peritoneal fluid [2, 4]: remained unchanged | eotaxin in peritoneal fluid [2, 4]: remained unchanged | ATG3 mRNA in lesions (ATG5 and ATG3 mRNA; p=0.0248): significant increase | ATG5 mRNA in lesions (ATG5 and ATG3 mRNA; p=0.0499): significant increase | LC3B-II protein (western blot) (LC3B-II [3]): increased
